Results: ChEMBL document CHEMBL4828769, “Discovery of AS-0141, a Potent and Selective Inhibitor of CDC7 Kinase for the Treatment of Solid Cancers” (J Med Chem, 2021)
pIC50: −log10 of the molar value.

Legend:
[1] = Inhibition of human CDC7/ASK using FITC-labelled MCM2 substrate in presence of 5 uM of ATP
[2] = Inhibition of human CDC7/ASK using FITC-labelled MCM2 substrate preincubated for 30 mins followed by substrate addition and measured after 5 hrs in presence of 1 mM of ATP
[3] = Metabolic stability in human liver microsomes assessed as parent compound remaining after 30 mins; type: ADME, Microsome; conditions: microsomes, 0.5 h
[4] = Metabolic stability in mouse liver microsomes assessed as parent compound remaining after 30 mins; type: ADME, Microsome; conditions: microsomes, 0.5 h
[5] = Inhibition of human CDC7/ASK using FITC-labelled MCM2 substrate in presence of 1 mM of ATP
COLO 205 = assay: Induction of cell cycle arrest in human COLO205 cells assessed as accumulation of cells at sub-G1 phase at 1 uM incubated for 48 hrs by propidium iodide staining based flow cytometry analysis; type: functional
[6] = molecular target: Cell division cycle 7-related protein kinase (Homo sapiens, UniProt O00311); assay: Inhibition of CDC7 in human COLO205 cells assessed as reduction in MCM2 phosphorylation at S53 residue at 0.1 uM incubated for 48 hrs by Western blot analysis relative to control; type: cell-based; conditions: COLO 205
Sequence of Cell division cycle 7-related protein kinase (O00311 whole entry, looked up): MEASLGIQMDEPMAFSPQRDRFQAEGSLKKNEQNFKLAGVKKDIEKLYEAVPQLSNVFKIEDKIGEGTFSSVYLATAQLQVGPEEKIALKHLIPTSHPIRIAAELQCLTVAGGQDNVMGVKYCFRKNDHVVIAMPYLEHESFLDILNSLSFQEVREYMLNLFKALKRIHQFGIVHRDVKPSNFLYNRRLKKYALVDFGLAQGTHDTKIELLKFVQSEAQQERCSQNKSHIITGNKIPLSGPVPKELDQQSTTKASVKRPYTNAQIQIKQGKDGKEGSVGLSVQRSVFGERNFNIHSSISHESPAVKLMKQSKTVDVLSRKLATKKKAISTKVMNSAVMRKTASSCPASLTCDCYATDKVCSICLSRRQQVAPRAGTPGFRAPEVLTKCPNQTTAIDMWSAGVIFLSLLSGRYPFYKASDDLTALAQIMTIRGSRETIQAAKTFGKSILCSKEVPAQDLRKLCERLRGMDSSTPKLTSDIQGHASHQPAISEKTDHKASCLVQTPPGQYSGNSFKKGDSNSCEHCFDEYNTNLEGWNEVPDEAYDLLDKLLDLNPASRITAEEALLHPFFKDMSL

| SMILES | pIC50 [1] | pIC50 [2] | Stability [3] | Stability [4] | pIC50 [5] | inhibition [6] [%] | Activity (COLO 205) [%] |
| --- | --- | --- | --- | --- | --- | --- | --- |
| CCOC(=O)C1=C(N2CCCCCC2)O/C(=C\c2c[nH]c3ncccc23)C1=O | 8.25 | 8.41 | Unstable | Unstable | 6.40 | – | – |
| CCOC(=O)C1=C(N2CCCCC2)O/C(=C\c2c[nH]c3ncccc23)C1=O | 7.80 | – | – | – | 6.07 | – | – |
| CCOC(=O)C1=C(NN2CCN(CCO)CC2)O/C(=C\c2c[nH]c3ncccc23)C1=O | 8.00 | 8.89 | – | – | 6.27 | 18 | 0 |
| CCOC(=O)C1=C(NCCOC)O/C(=C\c2c[nH]c3ncccc23)C1=O | 7.08 | < 5.00 | – | – | – | – | – |
| CCOC(=O)C1=C(Nc2ccccc2Cl)O/C(=C\c2c[nH]c3ncccc23)C1=O | 8.62 | 9.22 | – | – | 6.56 | – | – |
| CCOC(=O)C1=C(N2CCC(O)CC2)O/C(=C\c2c[nH]c3ncccc23)C1=O | 7.85 | 7.64 | – | – | 5.90 | – | – |
| CCOC(=O)C1=C(NN2CCN(C)CC2)O/C(=C\c2c[nH]c3ncccc23)C1=O | 7.92 | 8.35 | – | – | 5.97 | 63 | 15.9 |
| CCOC(=O)C1=C(NC2CCN(C)CC2)O/C(=C\c2c[nH]c3ncccc23)C1=O | 7.03 | – | – | – | – | – | – |
| CCOC(=O)C1=C(NN2CCCC2)O/C(=C\c2c[nH]c3ncccc23)C1=O | 8.16 | 8.96 | – | – | 6.16 | 100 | 17.4 |
| CCOC(=O)C1=C(NCCN(C)C)O/C(=C\c2c[nH]c3ncccc23)C1=O | 6.27 | – | – | – | – | – | – |
| CCOC(=O)C1=C(N2CCC(CO)CC2)O/C(=C\c2c[nH]c3ncccc23)C1=O | 7.82 | 8.00 | – | – | 5.87 | – | – |
| CCOC(=O)C1=C(N2CCCN(C)CC2)O/C(=C\c2c[nH]c3ncccc23)C1=O | 6.88 | < 5.00 | – | – | < 5.00 | – | – |
| CCOC(=O)C1=C(NN2CCOCC2)O/C(=C\c2c[nH]c3ncccc23)C1=O | 8.54 | 9.82 | – | – | 6.44 | 70 | 46.4 |
| CCOC(=O)C1=C(NN(C)C2CCCCC2)O/C(=C\c2c[nH]c3ncccc23)C1=O | 8.23 | 8.70 | – | – | 6.39 | 35 | 33 |
| CCOC(=O)C1=C(N(C)C2CCCCC2)O/C(=C\c2c[nH]c3ncccc23)C1=O | 8.02 | 7.64 | – | – | 6.02 | – | – |
| CCOC(=O)C1=C(NC(C)C)O/C(=C\c2c[nH]c3ncccc23)C1=O | 7.68 | – | – | – | – | – | – |

Now from value to compound, other results behind:

| pIC50 [1] | pIC50 [2] | Stability [3] | Stability [4] | pIC50 [5] | inhibition [6] [%] | SMILES | Activity (COLO 205) [%] |
| --- | --- | --- | --- | --- | --- | --- | --- |
| 7.46 | – | – | – | 5.57 | – | CCOC(=O)C1=C(N2CCOCC2)O/C(=C\c2c[nH]c3ncccc23)C1=O | – |
| 8.30 | 9.05 | – | – | 6.35 | 100 | CCOC(=O)C1=C(NN2CCCCCC2)O/C(=C\c2c[nH]c3ncccc23)C1=O | 23.2 |
| 8.16 | 8.62 | – | – | 6.40 | 67 | CCOC(=O)C1=C(NN(CC)CC)O/C(=C\c2c[nH]c3ncccc23)C1=O | 14.5 |
| 7.14 | – | – | – | 5.22 | – | CCOC(=O)C1=C(N2CCN(CCO)CC2)O/C(=C\c2c[nH]c3ncccc23)C1=O | – |
| 7.49 | – | – | – | – | – | CCNC1=C(C(=O)OCC)C(=O)/C(=C/c2c[nH]c3ncccc23)O1 | – |
| 8.11 | 7.28 | – | – | 6.18 | – | CCOC(=O)C1=C(NC2CCCCC2)O/C(=C\c2c[nH]c3ncccc23)C1=O | – |
| 7.89 | – | – | – | 5.83 | – | CCOC(=O)C1=C(NC2CCCC2)O/C(=C\c2c[nH]c3ncccc23)C1=O | – |
